Experimental data published in the METLIN SMRT retention time set (Domingo-Almenara et al. 2019).

Assay: gradient 5% acetonitrile 3 min, to 50% in 2 min, to 85% in 15 min, held 3 min, 100 µL/min
Settings: column: Zorbax Extend-C18 2.1 x 50 mm; eluents: water / acetonitrile, 0.1% formic acid
How it was run: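 Values are retention times taken from adduct peaks that software picked and an analyst inspected. The pure standards were run as mixtures of ~100 molecules on HPLC linked to a quadrupole time-of-flight mass spectrometer, in positive and negative ionization mode. A Zorbax Extend-C18 column (2.1 × 50 mm, 1.8 μm) was used at 100 μL/min with water and acetonitrile, each including 0.1% formic acid.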

SMILES	RP-LC retention time
CN1CCCN(C(=O)C2CN(S(=O)(=O)c3cccnc3)CC23CCCCC3)CC1 (centres undefined)	605 s
COC(=O)c1cccc(NC(=O)NC2CCCN2S(=O)(=O)c2ccc(Cl)cc2)c1 (centres undefined)	821 s
CCOC(=O)NCc1nc2ccccc2n1Cc1c(F)cccc1Cl	613 s
O=C(NCc1nc(-c2ccc(-c3csc(C4CC4)n3)cc2)no1)c1ccco1	830 s
CCCn1c(CCNC(=O)c2ccc(OC)cc2)nc2cccnc21	662 s
CCNC(=O)c1sc2nc(-c3ccc(F)cc3)c(NCCOC)n2c1C	777 s
COc1ccc(C)cc1NC(=O)c1cn2c(n1)CSCC2	841 s
COc1ccc(-c2nc(N3CCCC(C)C3)c3ccccc3n2)cc1 (centres undefined)	836 s
Cn1ccc2cc(S(=O)(=O)N3CCC(C(=O)N4CCN(Cc5ccccc5)CC4)CC3)ccc21	671 s
Cc1ccc(Cn2nc3ccc(S(=O)(=O)N4CCCCC4)cn3c2=O)cc1C	1020 s
NCCNc1ccc(NCCN)c2c1C(=O)c1ccncc1C2=O	564 s
O=C(c1ccco1)C(C(c1cccc(Cl)c1)N1CCOCC1)N1CCOCC1 (centres undefined)	782 s
Cc1cnn(CC(=O)N2CC(F)(F)C[C@H]2c2nc(C3CC3)no2)c1	703 s
CC(C)CCNC(=O)C1(C)CN(S(=O)(=O)c2ccccc2)CC(=O)N1Cc1ccc(F)cc1 (centres undefined)	978 s
Cc1c2c(nn1-c1ccc(SCc3ccccc3Cl)nn1)CCC2	1380 s
O=C(CCC(=O)N1CC2CCCN2c2ccccc21)NCCN1CCOCC1 (centres undefined)	620 s
Fc1ccc(-c2nc(-c3ccc(-n4cccn4)nc3)no2)cc1	1230 s
O=S(=O)(c1ccccc1)N1CCC(n2cnnc2-c2ccccc2)CC1	749 s
CSc1ccc(CNC(=O)Cn2ccc3ccc(N4CCOCC4)nc32)cc1	958 s
COc1cc(-c2noc(Cn3ncn4nc(-c5cccs5)cc4c3=O)n2)cc(OC)c1OC	983 s
Cn1nc(C(=O)NCc2cccs2)ccc1=O	632 s
CCOc1cccc(-c2noc(Cc3nnc(-c4ccc(F)cc4)o3)n2)c1	1080 s
O=C(Cn1cnc2nc(N3CCCC3)ncc2c1=O)Nc1ccc(Cl)cc1C(F)(F)F	782 s

SMILES	RP-LC retention time
O=C1c2ccccc2C(=O)N1CC(=O)N(Cc1ccccc1)c1cccc([N+](=O)[O-])c1	916 s
CCCc1cc(N2CCN(C(=O)c3ccc4c(c3)OCO4)CC2)nc2nnc(C)n12	624 s
Cc1ccc(-c2cn3ccn(-c4ccc(C)c(C)c4)c(=O)c3n2)cc1	931 s
Cc1ccccc1-c1nc2cnccn2c1NCCC(=O)NCc1ccco1	624 s
O=C(CSc1ncnc2nc[nH]c12)Nc1ccccc1C(F)(F)F	618 s
CCOC(=O)CNC(=O)N1CCc2c(c(C(=O)N3CCCCC3)nn2C)C1	643 s
COCCn1nnnc1C1CC2(CCOCC2)C(=O)N1Cc1cc(F)cc(F)c1 (centres undefined)	740 s
CCN1C(=O)c2cccnc2Sc2cc(NC(=O)c3ccccc3C(F)(F)F)ccc21	840 s
Cc1cc(C(=O)NCc2ccc(N(C)C)cc2)c2c(=O)n(C)c(=O)n(C)c2n1	578 s
COc1cccc(CNC(=O)c2ccc3c(c2)N(C)C(=O)C2CCCCN32)c1 (centres undefined)	842 s
Cc1cc(=O)n(CC(=O)Nc2cc(F)ccc2F)c(N2CCc3ccccc3C2)n1	849 s
O=C(CCC1NC(=O)c2ccccc2NC1=O)NCc1nc(-c2ccccc2)no1 (centres undefined)	624 s
O=C(c1ccc(-c2nccnc2N2CCCC2)cc1)N1CCC(Cc2ccccc2)CC1	1110 s
O=C(NC1CCCC1)NC1CCN(c2nc3cccnc3n(Cc3ccccc3)c2=O)CC1	990 s
CCCn1c(CCNC(=O)c2ccc(C#N)cc2)nc2cccnc21	662 s
Cc1cc(C)c(S(=O)(=O)N2CCc3c(c(-c4nnc(-c5ccc(F)cc5)o4)nn3C)C2)cc1C	1090 s
CSc1cccc(NC(=O)N2CCC[C@@H]2C(=O)NCc2csc(-c3ccccc3)n2)c1	888 s
CCOCCCNCc1ccc(-c2ccc(OC)c(Cl)c2)o1	705 s
Cc1ccccc1NC(=O)Cn1cnc2nc(N3CCC(C(=O)NC4CC4)CC3)sc2c1=O	644 s
COc1ccccc1C(=O)N1CC(Oc2cccc(-c3nc(-c4ccccc4)no3)c2)C1	1130 s
CCOC(=O)c1sc2nc(C)cc(C(F)(F)F)c2c1N	1130 s
O=C1NCC2(CCN(CCc3ccccc3)CC2)O1	579 s
Cc1cc(Cl)ccc1NC(=O)N1C[C@@H]2C[C@H](NC(=O)c3ccccc3)[C@H]1C2	907 s

SMILES	RP-LC retention time
Cc1nc(Cn2cccc2C(=O)NCc2cccc(Br)c2)no1	852 s
Cc1nc2cc(-c3noc(COc4ccccc4)n3)ccc2n(C2CCCC2)c1=O	1200 s
Cc1cccc(Sc2nccnc2N2CCC(C(=O)NC3CCCC3)CC2)c1	1040 s
O=C(Cn1cccc1-c1nc(-c2ccc3c(c2)OCO3)no1)Nc1ccccc1Cl	1100 s
CCCCS(=O)(=O)c1cc2c(cc1NC(=O)Cc1cccc(F)c1)n(C)c(=O)n2C	855 s
CCN1C(=O)c2ccccc2Oc2ccc(C(=O)NCc3cccc(OC)c3)cc21	921 s
COCCNC(=O)N1CCC(c2nnc(C(F)(F)F)o2)CC1	616 s
O=C(CN1CCCC1=O)NCc1ccc(F)cc1Cl	656 s
Cc1nc(-c2ccc(OCC(C)C)c(C#N)c2)sc1C(=O)O	1040 s
O=S(=O)(c1cc(-c2nnc(C3CCCC3)o2)co1)N1CCN(C2CCCCC2)CC1	715 s
CCCC(=O)Nc1ccc2c(c1)nc(CN1CCCC1)n2C(C)C	586 s
O=C(COc1ccccc1)OCc1nc2ccccc2s1	929 s
Cc1cc(OCC(=O)N2CCC(C)CC2)nc(-c2ccc(F)cc2)n1	1040 s
COc1ccc(Nc2c(C(=O)N3CCC(C)CC3)cnc3nc(C)ccc23)cc1OC	629 s
CC(=O)c1ccc(N2CCN(C(=O)c3nnn4c3COC(c3ccc(F)cc3)C4)CC2)cc1 (centres undefined)	914 s
O=C(NCCOc1ccc2nnc(-c3cccc(F)c3)n2n1)c1cc(=O)c2ccccc2o1	682 s
CC(=O)c1ccc(NC(=O)c2cc(C)nc3ccccc23)cc1	644 s
Cc1nc(-c2cccc(-c3noc(CN4C(=O)COc5ccc(Cl)cc54)n3)c2)cs1	1180 s
CC(NS(=O)(=O)CCCOc1ccc2c(c1)OCO2)c1ccccc1 (centres undefined)	750 s
O=C(c1ccco1)N1CCCC1c1nc(-c2ccccc2)no1 (centres undefined)	853 s
Cc1ccnc(N2CCCC(C(=O)NCCCN3CCCCCC3)C2)n1 (centres undefined)	586 s
O=C(c1ccc[nH]1)N1CCC2(CC1)N=C(c1ccc(Cl)cc1)NO2	776 s
CS(=O)(=O)CCNCc1nc(-c2ccc3ncnc(Nc4ccc(OCc5cccc(F)c5)c(Cl)c4)c3c2)cs1	717 s

SMILES	RP-LC retention time
O=C(NC1CC1)c1ccccc1OCC1CCN(C(=O)c2ccc(F)cc2)CC1	805 s
O=C(NCc1ccc2c(c1)OCO2)C1CCN(C(=O)c2ccc(-c3noc(C4CC4)n3)cc2)CC1	796 s
CCOc1ccc(-c2ccc(=O)n(CCNC(=O)c3ccc(N(C)C)cc3)n2)cc1	732 s
CCc1noc(NC(C)=O)c1-c1ccc(C)c(S(=O)(=O)NCc2ccc(F)cc2)c1	814 s
COc1ccc(NC(=O)C2(C)CCCCC(=O)N2)cc1 (centres undefined)	640 s
COc1ccc2c(c1)C1(CCN(C(=O)c3ccc(Cl)cc3)C1)C(=O)N2C (centres undefined)	832 s
O=C(Nc1ccc2c(c1)OCCO2)c1c(O)c2cccnc2n(-c2ccc(F)cc2)c1=O	1120 s
CC(C)n1ccnc(N2CCOCC2)c1=O	601 s
O=C(NCCc1csc(-c2ccccc2)n1)C1CCN(C(=O)COc2ccccc2)CC1	806 s
O=C(NCc1ccccc1)c1nnc(-c2ccc(S(=O)(=O)N3CCCC3)cc2)o1	879 s
Cc1cc(C)cc(C(=O)N2CCC(COc3ccc(C(=O)NC(C)C)cc3)CC2)c1	953 s
COCCNC(=O)CSc1cc(N2CCN(c3ccccc3OC)CC2)ncn1	698 s
Cc1cc(NC(=O)Nc2cc(Cl)ccc2C)no1	972 s
O=C(c1cnccn1)N1CC(c2nc(CCOCC3CCCC3)no2)C1	601 s
Cc1nnc(NC(=O)CCc2csc(NC(=O)NC3CCCCC3)n2)s1	682 s
Cc1cc(NC(=O)CC(=O)Nc2ccc3nc4n(c(=O)c3c2)CCCCC4)no1	636 s
COCCc1noc(C2CN(C(=O)Cn3ccnc3)C2)n1	580 s
Cc1cc(C(=O)Nc2nc3c(s2)CN(C(=O)c2cnn(-c4ccccc4)c2C)CC3)no1	712 s
COc1ccc(-c2nc(-c3ccc4ncn(C)c4c3)no2)cc1	732 s
CCc1noc(NC(C)=O)c1-c1ccc(C)c(S(=O)(=O)N2CCC(C)CC2)c1	929 s
